This is an account of results in patent US5698547A, “Cephalosporin antibiotics” (Microcide Pharmaceuticals, Inc., priority 1995, dated 1997).

In brackets after ≈: the same amount, converted by molar mass. Structures can show the parent of a compound that is named as a salt.

The test deals with S. aureus Col (Meth^R) (lac^-). The experiment in a line: MIC by agar dilution, S. aureus Col (Meth^R) (lac^-). The test is classed as cell-based. The conditions noted are these: Staphylococcus aureus; agar dilution; S. aureus Col (Meth^R) (lac^-); read-out: MIC. On the procedure: The compounds of the invention were evaluated against several β-lactamresistant bacteria strains by determining the minimum inhibitory concentration (MIC, μg/ml) of each compound with respect to each strain. The MIC, the lowest concentration of antibiotic which inhibits growth of the test organism, was determined by the agar dilution method.
To determine the MIC for bacterial isolates, the test compound was incorporated in a series of two-fold dilutions into liquified Mueller-Hinton agar. Upon solidification, a number of different bacterial strains were spot inoculated with a replicating device onto the agar surface. […] The procedures used in these studies have been standardized by the National Committee for Clinical Laboratory Standards (NCCLS), as per the NCCLS publication entitled METHODS FOR DILUTION ANTIMICROBIAL SUSCEPTIBILITY TESTS (1991), which is incorporated herein by reference.
Aliquots of antimicrobial agents were prepared in phosphate buffered saline (PBS) at pH 7.2. Tween 20 or DMSO was used as a solubilizing vehicle as needed. Standard methods of vortexing, sonicating and gentle heat were used to facilitate solubilizing the test agent. Typically, the concentration of the stock solution was 10× that of the highest drug concentration tested. A 1.28 mg/mL stock solution was used with a subsequent highest working concentration of 128 μg/mL. Serial two-fold dilutions were done through ≤0.25 μg/mL. Each drug level was tested in duplicate. Two-fold drug dilutions were done in sterile 50 mL tubes with a final drug volume of 5 mL. Upon the addition of 45 mL of molten agar, a 10-fold dilution resulted. Two, 25 mL. plates were then poured into 15×150 mm square Petri plates with grids and allowed to harden.
A control plate with a reference drug, either cefotaxime, vancomycin or imipenem, was used as the positive growth control. Stock concentrations of reference antibiotics were prepared and frozen at -80° C. Upon preparation, the control plates were sealed and stored in the refrigerator for up to 1 week prior to use; however, imipenem control plates had to be prepared just prior to use. All test plates were used within 24 hours of preparation.
Satisfactory results were obtained where the inoculum contained about 10^4 colony forming units (cfu) ±0.5 logs. Starting with pure cultures of the test isolates on agar plates, a few isolated colonies were transferred to a tube of nutrient broth and allowed to grow 4-6 hours at 35°-36° C. to reach log-phase growth. Dropwise addition of the broth culture to PBS was done to match a 0.5 McFarland turbidity standard equal to 10^8 cfu/mL. This was further diluted ten-fold in PBS to reach a working inoculum concentration of 10^7 cfu/mL. When 1 μL of the working inoculum was applied to the agar surface a concentration of about 10^4 cfu per spot was obtained.
Disposable sterile 1 μL loops were used to inoculate test plates, with each isolate in a designated grid on the agar plate. An alternate method of inoculation involved the use of a replica plater, a device with 48 steel pins allowing the simultaneous inoculation of multiple isolates. After the spots had dried, the plates were incubated at 35°-36° C. for 16-20 hours. Endpoints were assessed as the minimum inhibitory concentration (MIC) of antimicrobial agent.
The novel agents of this invention are notable for their enhanced activity against S. aureus Col and Enterococci (E. faecium and E. faecalis). The S. aureus Col strain is a high-level PBP2a producer, whereas S. aureus Col 8A, its isogenic partner, lacks PBP2a. […] Thus, the compounds of the present invention are effective against PBP2a-producing bacteria.
On the technique in general: Agar dilution tests growth on a series of plates holding different concentrations.

As to `C[n+]1cccc(SC2=C(C(=O)[O-])N3C(=O)[C@@H](NC(=O)Cc4ccccc4)[C@H]3SC2)c1-c1ccccc1` [Cmpd 82, (7R)-7-[(Phenylacetyl)amino]-3-(2-phenyl-N-methylpyridin-3-iumthio)-3-cephem-4-carboxylate], the MIC (in general, the least concentration at which growth counts as inhibited) turned out to be 4 µg/mL (≈ 7.73 µM).

`O=C(Cc1ccc(Cl)cc1)N[C@@H]1C(=O)N2C(C(=O)O)=C(Sc3cccnc3-c3ccccc3)CS[C@H]12` [Cmpd 84, (7R)-7-[(4-Chlorophenylacetyl)amino]-3-(2-phenylpyridin-3-ylthio)-3-cephem-4-carboxylic acid]: the MIC was 2 µg/mL (≈ 3.72 µM).

Consider `N#Cc1ccc(SC2=C(C(=O)O)N3C(=O)[C@@H](NC(=O)Cc4ccccc4)[C@H]3SC2)c(C#N)c1` [Cmpd 51, (7R)-7-[(Phenylacetyl)amino]-3-(2,4-dicyanophenylthio)-3-cephem-4-carboxylic acid], for which the MIC is 4 µg/mL (≈ 8.39 µM).

On to `Cc1nnc(SCc2ccccc2SC2=C(C(=O)O)N3C(=O)[C@@H](NC(=O)Cc4ccccc4)[C@H]3SC2)s1` [Cmpd 77], for which the minimal inhibitory concentration (MIC) amounted to 8 µg/mL (≈ 14 µM).

Regarding `N#Cc1ccccc1SC1=C(C(=O)O)N2C(=O)[C@@H](NC(=O)/C(=N\OC3CCCC3)c3csc(N)n3)[C@H]2SC1` [Cmpd 53, (7R)-7-[(Z)-2-(aminothiazol-4-yl)-2-(cyclopentyloxyimino)acetamido]-3-(2-cyanophenylthio)-3-cephem-4-carboxylic acid], the MIC is 4 µg/mL (≈ 7.01 µM).

For `Nc1nc(/C(=N/OCCF)C(=O)N[C@@H]2C(=O)N3C(C(=O)O)=C(Sc4ccnn4-c4ccccc4)CS[C@H]23)cs1` [Cmpd 90, (7R)-7-[(Z)-2-(aminothiazol-4-yl)-2-(2-fluoroethyloxyimino)acetamido]-3-(1-N-phenylpyrazol-5-ylthio)-3-cephem-4-carboxylic acid], the minimum inhibitory concentration (MIC) amounted to 8 µg/mL (≈ 13.6 µM).

As for `O=C(Cc1ccccc1)N[C@@H]1C(=O)N2C(C(=O)O)=C(Sc3cccc(-c4ccccc4)c3)CS[C@H]12` [Cmpd 10, (7R)-7-[(Phenylacetyl)amino]-3-(3-biphenylthio)-3-cephem-4-carboxylic acid], the MIC came to 8 µg/mL (≈ 15.9 µM).

Turning to `O=C(Cc1ccccc1)N[C@@H]1C(=O)N2C(C(=O)O)=C(Sc3ccc(C(F)(F)F)cc3)CS[C@H]12` [Cmpd 40, (7R)-7-[(Phenylacetyl)amino]-3-(4-trifluoromethylphenylthio)-3-cephem-4-carboxylic acid], the MIC was 4 µg/mL (≈ 8.09 µM).

As for `COC(=O)c1ccccc1SC1=C(C(=O)O)N2C(=O)[C@@H](NC(=O)Cc3ccccc3)[C@H]2SC1` [Cmpd 19, (7R)-7-[(Phenylacetyl)amino]-3-(o-carbomethoxyphenylthio)-3-cephem-4-carboxylic acid], the MIC turned out to be 4 µg/mL (≈ 8.25 µM).

In the case of `CN(C)C(SCc1ccc(SC2=C(C(=O)[O-])N3C(=O)[C@@H](NC(=O)Cc4ccccc4)[C@H]3SC2)c(I)c1)=[N+](C)C` [Cmpd 62, (7R)-7-[(Phenylacetyl)amino]-3-(4-tetramethylisothiouroniummethyl-2-iodophenylthio)-3-cephem-4-carboxylate, inner salt], the MIC came to 4 µg/mL.

Take `O=C(Cc1cccs1)N[C@@H]1C(=O)N2C(C(=O)O)=C(Sc3ccccc3I)CS[C@H]12` [Cmpd 25, (7R)-7-[(2-Thienylacetyl)amino]-3-(o-iodophenylthio)-3-cephem-4-carboxylicacid]: the MIC is 1 µg/mL (≈ 1.79 µM).

For the compound `Nc1nc(/C(=N/OC2CCCC2)C(=O)N[C@@H]2C(=O)N3C(C(=O)O)=C(Sc4cccnc4-c4ccccc4)CS[C@H]23)cs1` [Cmpd 86, (7R)-7-[(Z)-2-(aminothiazol-4-yl)-2-(cyclopentyloxyimino)acetamido]-3-(2-phenylpyridin-3-ylthio)-3-cephem-4-carboxylic acid], the MIC was 8 µg/mL (≈ 12.8 µM).

On to `CCCCCC(=O)N[C@@H]1C(=O)N2C(C(=O)O)=C(Sc3ccnn3-c3ccccc3)CS[C@H]12` [Cmpd 109, (7R)-7-[(hexanoyl)amino]-3-(1-N-phenylpyrazol-5-ylthio)-3-cephem-4-carboxylic acid], for which the minimum inhibitory concentration (MIC) is 4 µg/mL (≈ 8.46 µM).

`N=C(N)SCc1ccccc1SC1=C(C(=O)O)N2C(=O)[C@@H](NC(=O)Cc3ccccc3)[C@H]2SC1` [Cmpd 64, (7R)-7-[(Phenylacetyl)amino]-3-(2-isothiouroniummethylphenylthio)-3-cephem-4-carboxylate, inner salt]: the MIC worked out at 0.5 µg/mL.

Take `O=C(COc1ccc(Cl)cc1)N[C@@H]1C(=O)N2C(C(=O)O)=C(Sc3cc(Cl)ccc3Cl)CS[C@H]12` [Cmpd 31, (7R)-7-[(p-Chlorophenoxyacetyl)amino]-3-(2,5-dichlorophenylthio)-3-cephem-4-carboxylic acid]: the MIC came to 1 µg/mL (≈ 1.83 µM).

As for `Nc1nc(/C(=N/OCCF)C(=O)N[C@@H]2C(=O)N3C(C(=O)O)=C(Sc4ccnn4-c4ccccc4)CS[C@H]23)c(Cl)s1` [Cmpd 98, (7R)-7-[(Z)-2-(2-amino-5-chlorothiazol-4-yl)-2-(2-fluoroethyloxyimino)acetamido]-3-(1-N-phenylpyrazol-5-ylthio)-3-cephem-4-carboxylic acid], the MIC came out at 2 µg/mL (≈ 3.2 µM).

For the compound `Cn1cc[n+](Cc2ccc(-c3ccccc3SC3=C(C(=O)[O-])N4C(=O)[C@@H](NC(=O)Cc5ccccc5)[C@H]4SC3)s2)c1` [Cmpd 45, (7R)-7-[(Phenylacetyl)amino]-3-(2-(2-(N-methylimidazoliummethyl)thien-5-yl)phenylthio)-3-cephem-4-carboxylic acid], the MIC amounted to 4 µg/mL (≈ 6.64 µM).

`O=Cc1ccccc1SC1=C(C(=O)O)N2C(=O)[C@@H](NC(=O)Cc3ccccc3)[C@H]2SC1` [Cmpd 50, (7R)-7-[(Phenylacetyl)amino]-3-(2-formylphenylthio)-3-cephem-4-carboxylic acid]: the MIC amounted to 2 µg/mL (≈ 4.4 µM).

In the case of `O=C(Cc1ccccc1)N[C@@H]1C(=O)N2C(C(=O)O)=C(Sc3cc(Cl)ccc3Cl)CS[C@H]12` [Cmpd 16, (7R)-7-[(Phenylacetyl)amino]-3-(2,5-dichlorophenylthio)-3-cephem-4-carboxylic acid], the MIC was less than 0.5 µg/mL.

Regarding `O=C(Cc1ccccc1)N[C@@H]1C(=O)N2C(C(=O)O)=C(Sc3ccc(Cl)cc3)CS[C@H]12` [Cmpd 3, (7R)-7-[(Phenylacetyl)amino]-3-(p-chlorophenylthio)-3-cephem-4-carboxylic acid], the minimum inhibitory concentration (MIC) stood at 2 µg/mL (≈ 4.34 µM).

As to `N#CCC(=O)N[C@@H]1C(=O)N2C(C(=O)O)=C(Sc3cccnc3-c3ccccc3)CS[C@H]12` [Cmpd 85, (7R)-7-[(Cyanoacetyl)amino]-3-(2-phenylpyridin-3-ylthio)-3-cephem-4-carboxylic acid], the MIC worked out at 4 µg/mL (≈ 8.84 µM).

For `CN=C(N)SCc1ccccc1SC1=C(C(=O)O)N2C(=O)[C@@H](NC(=O)Cc3ccccc3)[C@H]2SC1` [Cmpd 76, (7R)-7-[(Phenylacetyl)amino]-3-(2-N-methylisothiouroniummethylphenylthio)-3-cephem-4-carboxylate, inner salt], the MIC was 2 µg/mL.

`O=C(Cc1ccco1)N[C@@H]1C(=O)N2C(C(=O)O)=C(Sc3ccnn3-c3ccccc3)CS[C@H]12` [Cmpd 111, (7R)-7-[(2-furylacetyl)amino]-3-(1-N-phenylpyrazol-5-ylthio)-3-cephem-4-carboxylic acid]: the MIC came out at 8 µg/mL (≈ 16.6 µM).

`N=C(NCCN1CCOCC1)SCc1ccc(SC2=C(C(=O)O)N3C(=O)[C@@H](NC(=O)Cc4ccccc4)[C@H]3SC2)c(I)c1` [Cmpd 61, (7R)-7-[(Phenylacetyl)amino]-3-(4-(N-morpholinoethyl)isothiouroniummethyl-2-iodophenylthio)-3-cephem-4-carboxylate, inner salt]: the MIC stood at 4 µg/mL.

Regarding `O=C(Cc1ccccc1)N[C@@H]1C(=O)N2C(C(=O)O)=C(Sc3ccc(Br)cc3Br)CS[C@H]12` [Cmpd 39, (7R)-7-[(Phenylacetyl)amino]-3-(2,4-dibromophenylthio)-3-cephem-4-carboxylic acid], the MIC is 0.5 µg/mL (≈ 0.856 µM).

With `CC(C)Oc1ccccc1SC1=C(C(=O)O)N2C(=O)[C@@H](NC(=O)Cc3ccccc3)[C@H]2SC1` [Cmpd 47, (7R)-7-[(Phenylacetyl)amino]-3-(2-isopropyloxyphenylthio)-3-cephem-4-carboxylic acid], the MIC was 1 µg/mL (≈ 2.06 µM).
